Reference: US20230192700A1, “PYRAZOLOPYRAZINES ACTING ON CANCERS VIA INHIBITION OF CDK12” (Bayer Aktiengesellschaft, priority 2020, published 2023)

Biological target: T1, CDK2/CyclinE (Homo sapiens, UniProt P24941)
T1 construct: GST; purchased ProQinase GmbH (Freiburg, Germany); host or cells: insect cells (Sf9)
Experiment: CDK2/CycE kinase assay (TR-FRET)
Format: biochemical
Settings: 2 mM ATP (high ATP); median; read-out: CDK2/CyclinE, 2 mM ATP (high ATP) IC50 - [mol/l] (median)
Text: 2.4 CDK2/CycE Kinase Assay
CDK2/CycE-inhibitory activity of compounds of the present invention was quantified employing the CDK2/CycE TR-FRET assay as described in the following paragraphs.
Recombinant fusion proteins of GST and human CDK2 and of GST and human CycE, expressed in insect cells (Sf9) and purified by Glutathion-Sepharose affinity chromatography, were purchased from ProQinase GmbH (Freiburg, Germany). As substrate for the kinase reaction biotinylated peptide biotin-Ttds-YISPLKSPYKISEG (C-terminus in amid form) was used which can be purchased e.g. form the company JERINI peptide technologies (Berlin, Germany).
For the assay 50 nanoL of a 100 fold concentrated solution of the test compound in DMSO was pipetted into a black low volume 384 well microtiter plate or a black 1536 well microtiter plate (both Greiner Bio-One, Frickenhausen, Germany), 2 microL of a solution of CDK2/CycE in aqueous assay buffer [50 millimol/L Tris/HCl pH 8.0, 10 millimol/L MgCl2, 1.0 millimol/L dithiothreitol, 0.1 millimol/L sodium ortho-vanadate, 0.01% (v/v) Nonidet-P40 (Sigma)] were added and the mixture was incubated for 15 min at 22° C. to allow pre-binding of the test compounds to the enzyme before the start of the kinase reaction. Then the kinase reaction was started by the addition of 3 microL of a solution of adenosine-tri-phosphate (ATP, 3.33 millimol/L=>final conc. in the 5 microL assay volume is 2 millimol/L) and substrate (1.25 micromol/L=>final conc. in the 5 microL assay volume is 0.75 micromol/L) in assay buffer and the resulting mixture was incubated for a reaction time of 25 min at 22° C. The concentration of CDK2/CycE was adjusted depending of the activity of the enzyme lot and was chosen appropriate to have the assay in the linear range, typical concentrations were in the range of 10 ng/mL. The reaction was stopped by the addition of 3 microL of a solution of TR-FRET detection reagents (0.333 micromol/L streptavidine-XL665 [Cisbio Bioassays, Codolet, France] and 1.67 nanomol/L anti-RB(pSer807/pSer811)-antibody from BD Pharmingen [#558389] and 2 nanomol/L LANCE EU-W1024 labeled anti-mouse IgG antibody [Perkin-Elmer, product no. AD0077, as an alternative a Terbium-cryptate-labeled anti-mouse IgG antibody from Cisbio Bioassays can be used]) in an aqueous EDTA-solution (167 millimol/L EDTA, 0.2% (w/v) bovine serum albumin in 100 millimol/L HEPES pH 7.5).
The resulting mixture was incubated 1 h at 22° C. to allow the formation of complex between the phosphorylated biotinylated peptide and the detection reagents. Subsequently the amount of phosphorylated substrate was evaluated by measurement of the resonance energy transfer from the Eu-chelate to the streptavidine-XL. Therefore, the fluorescence emissions at 620 nm and 665 nm after excitation at 350 nm was measured in a TR-FRET reader, e.g. a Pherastar (BMG Labtechnologies, Offenburg, Germany) or a Viewlux (Perkin-Elmer). The ratio of the emissions at 665 nm and at […] was taken as the measure for the amount of phosphorylated substrate. The data were normalised (enzyme reaction without inhibitor=0% inhibition, all other assay components but no enzyme=100% inhibition).

In the case of `Cc1ccc2[nH]c(CNc3nn(C4CCN(C)CC4)c4nc(C5CC5)cnc34)nc2c1C` [Example 28, 6-cyclopropyl-N-[(4,5-dimethyl-1H-benzimidazol-2-yl)methyl]-1-(1-methylpiperidin-4-yl)-1H-pyrazolo[3,4-b]pyrazin-3-amine], the IC50 is reported as > 20 µM.

For `CN1CCCC(n2nc(NCc3nc4ccccc4[nH]3)c3ncc(C4CC4)nc32)CC1` (single isomer, unassigned) [Example 38, (−) or (+)-N-[(1H-benzimidazol-2-yl)methyl]-6-cyclopropyl-1-[(4R*)-1-methylazepan-4-yl]-1H-pyrazolo[3,4-b]pyrazin-3-amine], the IC50 was > 20 µM.

In the case of `CN1CCC(n2nc(NCc3nc4cc(C(F)(F)F)ccc4[nH]3)c3ncc(C4CC4)nc32)CC1` [Example 25, 6-cyclopropyl-1-(1-methylpiperidin-4-yl)-N-{[5-(trifluoromethyl)-1H-benzimidazol-2-yl]methyl}-1H-pyrazolo[3,4-b]pyrazin-3-amine], the IC50 is reported as > 20 µM.

For `Fc1cccc2[nH]c(CNc3nn(C4CCOCC4)c4nc(C5CC5)cnc34)nc12` [Example 23, 6-cyclopropyl-N-[(4-fluoro-1H-benzimidazol-2-yl)methyl]-1-(oxan-4-yl)-1H-pyrazolo[3,4-b]pyrazin-3-amine], the IC50 was 16.4 µM.

`c1ccc2[nH]c(CNc3nn(C4CCOC4)c4nc(C5CC5)cnc34)nc2c1` (single isomer, unassigned) [Example 17, (+) or (−)-N-[(1H-benzimidazol-2-yl)methyl]-6-cyclopropyl-1-(oxolan-3-yl)-1H-pyrazolo[3,4-b]pyrazin-3-amine] was tested, and the IC50 was > 20 µM.

With `O[C@H]1CC[C@@H](n2nc(NCc3nc4ccccc4[nH]3)c3ncc(C4CC4)nc32)CC1` [Example 51, cis-4-(3-{[(1H-benzimidazol-2-yl)methyl]amino}-6-cyclopropyl-1H-pyrazolo[3,4-b]pyrazin-1-yl)cyclohexan-1-ol] the IC50 was > 20 µM.

With `CC(CCN(C)C)n1nc(NCc2nc3ccccc3[nH]2)c2ncc(C3CC3)nc21` (single isomer, unassigned) [Example 63, (+) or (−)-N-[(1H-benzimidazol-2-yl)methyl]-6-cyclopropyl-1-[4-(dimethylamino)butan-2-yl]-1H-pyrazolo[3,4-b]pyrazin-3-amine] the IC50 was > 20 µM.

For `c1ccc2[nH]c(CNc3nn(C4CCOC4)c4nc(C5CC5)cnc34)nc2c1` (single isomer, unassigned) [Example 18, (-) or (+) -N-[(1H-benzimidazol-2-yl)methyl]-6-cyclopropyl-1-[oxolan-3-yl]-1H-pyrazolo[3,4-b]pyrazin-3-amine], the IC50 was > 20 µM.

In the case of `CN1CCC(n2nc(NCc3nc4ccccc4[nH]3)c3ncc(C4CC4)nc32)CC1` [Example 1, N-[(1H-benzimidazol-2-yl)methyl]-6-cyclopropyl-1-(1-methylpiperidin-4-yl)-1H-pyrazolo[3,4-b]pyrazin-3-amine], the IC50 is reported as > 20 µM.

`CN1CCC(n2nc(NCc3nc4cc(Cl)c(F)cc4[nH]3)c3ncc(C4CC4)nc32)CC1` [Example 29, N-[(5-chloro-6-fluoro-1H-benzimidazol-2-yl)methyl]-6-cyclopropyl-1-(1-methylpiperidin-4-yl)-1H-pyrazolo[3,4-b]pyrazin-3-amine] was tested, and the IC50 was > 20 µM.

For `O[C@H]1C[C@@H](Cn2nc(NCc3nc4ccccc4[nH]3)c3ncc(C4CC4)nc32)C1` [Example 71, cis-3-[(3-{[(1H-benzimidazol-2-yl)methyl]amino}-6-cyclopropyl-1H-pyrazolo[3,4-b]pyrazin-1-yl)methyl]cyclobutan-1-ol], the IC50 was > 20 µM.

In the case of `CC(C)n1nc(NCc2nc3ccccc3[nH]2)c2ncc(C3CC3)nc21` [Example 14, N-[(1H-benzimidazol-2-yl)methyl]-6-cyclopropyl-1-(propan-2-yl)-1H-pyrazolo[3,4-b]pyrazin-3-amine], the IC50 is reported as > 20 µM.

In the case of `COCCC(C)n1nc(NCc2nc3ccccc3[nH]2)c2ncc(C3CC3)nc21` (single isomer, unassigned; (-)) [Example 58, (−)-N-[(1H-benzimidazol-2-yl)methyl]-6-cyclopropyl-1-[4-methoxybutan-2-yl]-1H-pyrazolo[3,4-b]pyrazin-3-amine], the IC50 is reported as > 20 µM.

With `CN1CCCC(n2nc(NCc3nc4ccccc4[nH]3)c3ncc(C4CC4)nc32)CC1` (single isomer, unassigned) [Example 37, (+) or (−)-N-[(1H-benzimidazol-2-yl)methyl]-6-cyclopropyl-1-[(4R*)-1-methylazepan-4-yl]-1H-pyrazolo[3,4-b]pyrazin-3-amine] the IC50 was > 20 µM.

`O[C@H]1C[C@H](Cn2nc(NCc3nc4ccccc4[nH]3)c3ncc(C4CC4)nc32)C1` [Example 70, trans-3-[(3-{[(1H-benzimidazol-2-yl)methyl]amino}-6-cyclopropyl-1H-pyrazolo[3,4-b]pyrazin-1-yl)methyl]cyclobutan-1-ol] was tested, and the IC50 was > 20 µM.

In the case of `c1ccc2[nH]c(CNc3nn(C4CCOC4)c4nc(C5CC5)cnc34)nc2c1` (racemic) [Example 10, (±)-N-[(1H-benzimidazol-2-yl)methyl]-6-cyclopropyl-1-[oxolan-3-yl]-1H-pyrazolo[3,4-b]pyrazin-3-amine], the IC50 is reported as > 20 µM.

With `CN1CCC(n2nc(NCc3nc4ccccc4[nH]3)c3ncc(C4CC4)nc32)C1` (single isomer, unassigned) [Example 79, (−) or (+)-N-[(1H-benzimidazol-2-yl)methyl]-6-cyclopropyl-1-(1-methylpyrrolidin-3-yl)-1H-pyrazolo[3,4-b]pyrazin-3-amine] the IC50 was > 20 µM.

For `Cc1ccc2[nH]c(CNc3nn(C4CCN(C)CC4)c4nc(C5CC5)cnc34)nc2c1` [Example 6, 6-cyclopropyl-N-[(5-methyl-1H-benzimidazol-2-yl)methyl]-1-(1-methylpiperidin-4-yl)-1H-pyrazolo[3,4-b]pyrazin-3-amine], the IC50 was > 20 µM.

In the case of `CN(C)CCn1nc(NCc2nc3ccccc3[nH]2)c2ncc(C3CC3)nc21` [Example 68, N-[(1H-benzimidazol-2-yl)methyl]-6-cyclopropyl-1-[2-(dimethylamino)ethyl]-1H-pyrazolo[3,4-b]pyrazin-3-amine], the IC50 is reported as > 20 µM.

With `OC1(Cn2nc(NCc3nc4ccccc4[nH]3)c3ncc(C4CC4)nc32)CCCC1` [Example 73, 1-[(3-{[(1H-benzimidazol-2-yl)methyl]amino}-6-cyclopropyl-1H-pyrazolo[3,4-b]pyrazin-1-yl)methyl]cyclopentan-1-ol] the IC50 was > 20 µM.

For `FC1(F)CCC(n2nc(NCc3nc4ccccc4[nH]3)c3ncc(C4CC4)nc32)CC1` [Example 36, N-[(1H-benzimidazol-2-yl)methyl]-6-cyclopropyl-1-(4,4-difluorocyclohexyl)-1H-pyrazolo[3,4-b]pyrazin-3-amine], the IC50 was > 20 µM.

`CC1CC(n2nc(NCc3nc4ccccc4[nH]3)c3ncc(C4CC4)nc32)CCN1C` (racemic) [Example 41, (±)-cis/trans-N-[(1H-benzimidazol-2-yl)methyl]-6-cyclopropyl-1-(1,2-dimethylpiperidin-4-yl)-1H-pyrazolo[3,4-b]pyrazin-3-amine] was tested, and the IC50 was > 20 µM.

`CN1CCC(n2nc(NCc3nc4cc(SC(F)(F)F)ccc4[nH]3)c3ncc(C4CC4)nc32)CC1` [Example 27, 6-cyclopropyl-1-(1-methylpiperidin-4-yl)-N-({5-[(trifluoromethyl)sulfanyl]-1H-benzimidazol-2-yl}methyl)-1H-pyrazolo[3,4-b]pyrazin-3-amine] was tested, and the IC50 was > 20 µM.

For `O[C@H]1C[C@@H](n2nc(NCc3nc4ccccc4[nH]3)c3ncc(C4CC4)nc32)C1` [Example 40, cis-3-(3-{[(1H-benzimidazol-2-yl)methyl]amino}-6-cyclopropyl-1H-pyrazolo[3,4-b]pyrazin-1-yl)cyclobutan-1-ol], the IC50 was > 20 µM.

For `OCCCn1nc(NCc2nc3ccccc3[nH]2)c2ncc(C3CC3)nc21` [Example 60, 3-(3-{[(1H-benzimidazol-2-yl)methyl]amino}-6-cyclopropyl-1H-pyrazolo[3,4-b]pyrazin-1-yl)propan-1-ol], the IC50 was > 20 µM.
